Earlier results on two compounds are cited in patent US20090137653A1, “SUBSTITUTED BENZYLAMINES AS CYP2A INHIBITORS AND USES THEREOF TO TREAT NICOTINE DEPENDENCE” (INFLAYZME PHARMACEUTICALS LTD., priority 2005, published 2009).

The Ki is a dissociation constant, usually derived from enzyme kinetics or from competition with a known ligand. A word on the half-life: it is the time in which the quantity being followed falls by half.

One data set has as its target CYP2A6 (Homo sapiens, UniProt P11509). As to conditions: read-out: CYP2A6 Ki; human liver microsomes. (In general: Liver microsomes are vesicles of endoplasmic reticulum, rich in cytochrome P450 enzymes.)

CYP2A6, sequence (P11509 whole entry): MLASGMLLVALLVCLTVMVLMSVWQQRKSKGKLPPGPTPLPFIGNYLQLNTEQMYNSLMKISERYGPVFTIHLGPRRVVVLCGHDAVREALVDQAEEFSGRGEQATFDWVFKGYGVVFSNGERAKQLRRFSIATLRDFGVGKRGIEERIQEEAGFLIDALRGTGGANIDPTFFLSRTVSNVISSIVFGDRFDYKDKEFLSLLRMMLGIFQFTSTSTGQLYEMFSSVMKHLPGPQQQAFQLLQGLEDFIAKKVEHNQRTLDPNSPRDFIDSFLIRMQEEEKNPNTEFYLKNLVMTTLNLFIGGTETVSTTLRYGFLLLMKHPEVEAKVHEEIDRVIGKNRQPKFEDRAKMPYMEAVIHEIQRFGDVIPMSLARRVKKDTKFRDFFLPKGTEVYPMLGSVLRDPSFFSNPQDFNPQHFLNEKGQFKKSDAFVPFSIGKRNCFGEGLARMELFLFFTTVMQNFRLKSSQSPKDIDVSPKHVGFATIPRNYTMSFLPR

In the case of `N[C@@H]1C[C@H]1c1ccccc1` (racemic) [tranylcypromine], the inhibition constant Ki on CYP2A6 is 200 nM.

Regarding `CN1CCCC1c1cccnc1` (stereo not drawn) [nicotine], the half-life (in vivo) is 1 to 2 h. In addition, where the note is “taken orally, liver”, the “eliminated by first pass effect” value is listed as “around 70%”.
